Measured values reported in ChEMBL document CHEMBL1201861, “Genomics of Drug Sensitity in Cancer screening data, Wellcome Trust Sanger Institute”.

Key:
Assay in all cases: cells
[1] = tested on: SW837; type: functional, cell-based, Homo sapiens; details: Homo sapiens, SW837;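 note: growth inhibition of SW837 cells, determined with a cell viability assay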
Description: SANGER: Inhibition of human SW837 cell growth in a cell viability assay.

[2] = tested on: CAL-72; type: functional, cell-based, Homo sapiens; details: Homo sapiens, CAL-72;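 note: cell viability assay measuring inhibition of proliferation in the CAL-72 cell line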
Description: SANGER: Inhibition of human CAL-72 cell growth in a cell viability assay.

[3] = tested on: KYSE-520 cell line; type: functional, cell-based, Homo sapiens; details: Homo sapiens, KYSE-520;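 note: growth inhibition of human KYSE-520 cells, read out with a viability assay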
Description: SANGER: Inhibition of human KYSE-520 cell growth in a cell viability assay.

[4] = tested on: LCLC-97TM1; type: functional, cell-based, Homo sapiens; details: Homo sapiens, LCLC-97TM1;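 note: cell viability assay measuring growth inhibition of human LCLC-97TM1 cells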
Description: SANGER: Inhibition of human LCLC-97TM1 cell growth in a cell viability assay.

[5] = tested on: IGROV-1; type: functional, cell-based, Homo sapiens; details: Homo sapiens, IGROV-1;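 note: reduction of IGROV-1 cell growth, read out with a viability assay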
Description: SANGER: Inhibition of human IGROV-1 cell growth in a cell viability assay.

[6] = tested on: OC-314; type: functional, cell-based, Homo sapiens; details: Homo sapiens, OC-314
Description: SANGER: Inhibition of human OC-314 cell growth in a cell viability assay.

[7] = tested on: NCI-H522; type: functional, cell-based, Homo sapiens; details: Homo sapiens, NCI-H522;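 note: cell viability assay measuring growth inhibition of human NCI-H522 cells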
Description: SANGER: Inhibition of human NCI-H522 cell growth in a cell viability assay.

[8] = tested on: NCI-H460; type: functional, cell-based, Homo sapiens; details: Homo sapiens, NCI-H460;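 note: cell viability assay scoring growth inhibition of human NCI-H460 cells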
Description: SANGER: Inhibition of human NCI-H460 cell growth in a cell viability assay.

[9] = tested on: BPH-1; type: functional, cell-based, Homo sapiens; details: Homo sapiens, BPH-1;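 note: cell viability assay measuring growth inhibition of human BPH-1 cells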
Description: SANGER: Inhibition of human BPH-1 cell growth in a cell viability assay.

[10] = tested on: SK-MEL-24; type: functional, cell-based, Homo sapiens; details: Homo sapiens, SK-MEL-24;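 note: growth inhibition read out by a cell viability assay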
Description: SANGER: Inhibition of human SK-MEL-24 cell growth in a cell viability assay.

[11] = tested on: MCF7; type: functional, cell-based, Homo sapiens; details: Homo sapiens, MCF7;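 note: growth inhibition of human MCF7 cells, read out with a cell viability assay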
Description: SANGER: Inhibition of human MCF7 cell growth in a cell viability assay.

[12] = tested on: NUGC-3; type: functional, cell-based, Homo sapiens; details: Homo sapiens, NUGC-3;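 note: growth inhibition of human NUGC-3 cells, read out with a cell viability assay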
Description: SANGER: Inhibition of human NUGC-3 cell growth in a cell viability assay.

[13] = tested on: HT-29; type: functional, cell-based, Homo sapiens; details: Homo sapiens, HT-29;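 note: growth inhibition of human HT-29 cells, read out by a cell viability assay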
Description: SANGER: Inhibition of human HT-29 cell growth in a cell viability assay.

[14] = tested on: SK-N-AS; type: functional, cell-based, Homo sapiens; details: Homo sapiens, SK-N-AS;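 note: growth inhibition of human SK-N-AS cells, measured with a cell viability assay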
Description: SANGER: Inhibition of human SK-N-AS cell growth in a cell viability assay.

[15] = tested on: BT-20; type: functional, cell-based, Homo sapiens; details: Homo sapiens, BT-20;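 note: cell viability assay measuring suppression of growth in human BT-20 cells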
Description: SANGER: Inhibition of human BT-20 cell growth in a cell viability assay.

[16] = tested on: U-251; type: functional, cell-based, Homo sapiens; details: Homo sapiens, U-251;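 note: growth inhibition of human U-251 cells, read out through a cell viability assay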
Description: SANGER: Inhibition of human U251 cell growth in a cell viability assay.

[17] = tested on: NCI-H2029; type: functional, cell-based, Homo sapiens; details: Homo sapiens, NCI-H2029;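 note: Read-out is a viability assay on the cultured cells, and IC50 is the concentration that suppresses cell growth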
Description: SANGER: Inhibition of human NCI-H2029 cell growth in a cell viability assay.

[18] = tested on: LoVo; type: functional, cell-based, Homo sapiens; details: Homo sapiens, LoVo;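 note: growth inhibition of human LoVo cells, read out with a cell viability assay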
Description: SANGER: Inhibition of human LoVo cell growth in a cell viability assay.

[19] = tested on: ChaGo-K-1; type: functional, cell-based, Homo sapiens; details: Homo sapiens, ChaGo-K-1;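 note: growth inhibition of ChaGo-K-1 cells, read out with a cell viability assay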
Description: SANGER: Inhibition of human ChaGo-K-1 cell growth in a cell viability assay.

[20] = tested on: CHP-212; type: functional, cell-based, Homo sapiens; details: Homo sapiens, CHP-212
Description: SANGER: Inhibition of human CHP-212 cell growth in a cell viability assay.

[21] = tested on: COLO-792; type: functional, cell-based, Homo sapiens; details: Homo sapiens, COLO-792
Description: SANGER: Inhibition of human COLO-792 cell growth in a cell viability assay.

[22] = tested on: PANC-03-27; type: functional, cell-based, Homo sapiens; details: Homo sapiens, PANC-03-27
Description: SANGER: Inhibition of human PANC-03-27 cell growth in a cell viability assay.

[23] = tested on: Panc1005; type: functional, cell-based, Homo sapiens; details: Homo sapiens, Panc1005;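 note: growth inhibition of human PANC-10-05 cells, measured by a cell viability assay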
Description: SANGER: Inhibition of human PANC-10-05 cell growth in a cell viability assay.

[24] = tested on: BHY; type: functional, cell-based, Homo sapiens; details: Homo sapiens, BHY;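 note: cell growth inhibition read out by a viability assay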
Description: SANGER: Inhibition of human BHY cell growth in a cell viability assay.

[25] = tested on: HT55; type: functional, cell-based, Homo sapiens; details: Homo sapiens, HT55;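 note: cell viability readout measuring growth inhibition of human HT55 cells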
Description: SANGER: Inhibition of human HT55 cell growth in a cell viability assay.

[26] = tested on: T84; type: functional, cell-based, Homo sapiens; details: Homo sapiens, T84;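 note: growth inhibition measured with a cell viability readout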
Description: SANGER: Inhibition of human T84 cell growth in a cell viability assay.

[27] = tested on: HuP-T4; type: functional, cell-based, Homo sapiens; details: Homo sapiens, HuP-T4;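 note: cell viability assay measuring how much HuP-T4 cell growth is inhibited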
Description: SANGER: Inhibition of human HuP-T4 cell growth in a cell viability assay.

[28] = tested on: U2OS; type: functional, cell-based, Homo sapiens, U-2-OS; details: Homo sapiens, U2OS;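 note: growth inhibition of human U-2-OS cells, determined with a cell viability assay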
Description: SANGER: Inhibition of human U-2-OS cell growth in a cell viability assay.

[29] = tested on: KP-4; type: functional, cell-based, Homo sapiens; details: Homo sapiens, KP-4;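 note: human KP-4 cells, with growth inhibition read out through a cell viability assay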
Description: SANGER: Inhibition of human KP-4 cell growth in a cell viability assay.

[30] = tested on: HT-3; type: functional, cell-based, Homo sapiens; details: Homo sapiens, HT-3;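 note: growth inhibition measured with a cell viability readout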
Description: SANGER: Inhibition of human HT-3 cell growth in a cell viability assay.

[31] = tested on: NCI-H1703; type: functional, cell-based, Homo sapiens; details: Homo sapiens, NCI-H1703;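 note: growth inhibition of NCI-H1703 cells, read out via a cell viability assay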
Description: SANGER: Inhibition of human NCI-H1703 cell growth in a cell viability assay.

[32] = tested on: G-361; type: functional, cell-based, Homo sapiens; details: Homo sapiens, G-361

Compound	IC50 [1] [µM]	IC50 [2] [µM]	IC50 [3] [µM]	IC50 [4] [µM]	IC50 [5] [µM]	IC50 [6] [µM]	IC50 [7] [µM]	IC50 [8] [µM]	IC50 [9] [µM]	IC50 [10] [µM]	IC50 [11] [µM]	IC50 [12] [µM]	IC50 [13] [µM]	IC50 [14] [µM]	IC50 [15] [µM]	IC50 [16] [µM]	IC50 [17] [µM]	IC50 [18] [µM]	IC50 [19] [µM]	IC50 [20] [µM]	other results
CCN(CC)CCCCNc1ncc2cc(-c3cc(OC)cc(OC)c3)c(NC(=O)NC(C)(C)C)nc2n1 [PD-173074]	> 2	> 2	> 2	> 2	> 2	> 2	> 2	> 2	> 2	> 2	> 2	> 2	> 2	> 2	> 2	> 2	> 2	> 2	> 2	> 2	IC50 [21]: > 2 µM; IC50 [22]: > 2 µM; IC50 [23]: > 2 µM; IC50 [24]: > 2 µM; IC50 [25]: > 2 µM; IC50 [26]: > 2 µM; IC50 [27]: > 2 µM; IC50 [28]: > 2 µM; IC50 [29]: > 2 µM; IC50 [30]: > 2 µM
COc1cc2c(Nc3ccc(NC(=O)c4ccccc4)cc3)ncnc2cc1OCCCN1CCOCC1	> 4	> 4	> 4	2.18	> 4	> 4	> 4	3.07	> 4	> 4	> 4	3.85	> 4	> 4	> 4	> 4	> 4	> 4	> 4	1.47	IC50 [21]: > 4 µM; IC50 [22]: > 4 µM; IC50 [23]: > 4 µM; IC50 [24]: > 4 µM; IC50 [25]: > 4 µM; IC50 [26]: > 4 µM; IC50 [27]: > 4 µM; IC50 [28]: > 4 µM; IC50 [29]: > 4 µM; IC50 [30]: > 4 µM
CC(C)CCN1c2nc(Nc3cc(F)c(O)c(F)c3)ncc2N(C)C(=O)C1C (centres undefined)	> 5	> 5	> 5	2.6	> 5	> 5	> 5	> 5	2.13	> 5	> 5	> 5	> 5	2.29	> 5	2.73	1.97	1.47	> 5	> 5	IC50 [31]: > 5 µM; IC50 [32]: 2.12 µM; IC50 [21]: > 5 µM; IC50 [22]: 4.3 µM; IC50 [23]: > 5 µM; IC50 [24]: > 5 µM; IC50 [25]: > 5 µM; IC50 [26]: > 5 µM; IC50 [27]: > 5 µM; IC50 [28]: > 5 µM; IC50 [29]: > 5 µM; IC50 [30]: 2.51 µM
CC1(C)CNc2cc(NC(=O)c3cccnc3NCc3ccncc3)ccc21 [MOTESANIB]	> 2	> 2	> 2	> 2	> 2	> 2	> 2	> 2	> 2	> 2	> 2	> 2	> 2	> 2	> 2	> 2	> 2	> 2	> 2	> 2	IC50 [21]: > 2 µM; IC50 [22]: > 2 µM; IC50 [23]: > 2 µM; IC50 [24]: > 2 µM; IC50 [25]: > 2 µM; IC50 [26]: > 2 µM; IC50 [27]: > 2 µM; IC50 [28]: > 2 µM; IC50 [29]: > 2 µM; IC50 [30]: > 2 µM
CC(C)c1ccccc1Cc1cc(C(=O)Nc2ccc(S(=O)(=O)c3ccccc3C(C)(C)C)cc2)c(O)c(O)c1O	2.39	0.968	4.14	0.917	0.454	0.21	2.08	0.306	0.286	0.41	0.337	1.15	1.46	0.181	0.656	0.388	14.4	0.161	0.296	4.57	IC50 [31]: 0.217 µM; IC50 [32]: 0.125 µM; IC50 [21]: 0.247 µM; IC50 [22]: 0.474 µM; IC50 [23]: 1.1 µM; IC50 [24]: 0.702 µM; IC50 [25]: 0.651 µM; IC50 [26]: 13.9 µM; IC50 [27]: 0.543 µM; IC50 [28]: 0.552 µM; IC50 [29]: 0.455 µM; IC50 [30]: 0.192 µM
